According to US9296691B2, “Inhibitors of p75 receptor and their uses” (Horacio Uri Saragovi, priority 2010, dated 2016):

How the values were obtained:
B104 cells = test: Pro-NTF killing assay (MTT), B104 cells; type: cell-based; details: pro-NTF 50 nM + I-B 20 μM, 72 hours
Method: The effect of I-B on the pro-apoptotic function of pro-NGF or pro-BDNF was tested in functional MTT assays measuring cell metabolism (FIG. 1B).
Cells (5,000 cells/well) were cultured in 96-well plates (Falcon, Lincoln Park, N.J.) in normal culture media (RPMI1640, Hepes, Glutamine, 5% serum). Wells were supplemented with NGF, BDNF, pro-NGF, or pro-BDNF (Alomone Labs) (50 nM final), in the presence or absence of I-B (20 μM final). Wells containing all culture conditions but no cells were used as blanks. The growth/survival profile of the cells was quantified using MTT (Sigma) 72 hours after plating. Optical density readings of MTT were done in a Benchmark Plus microplate Spectrophotometer (BioRad) at 595 nm with blanks subtracted.

p75-Fc = biological target: T1, p75-Fc (Homo sapiens, UniProt P08138); test: Competitive ELISA, p75-Fc binding to immobilized NGF
T1 construct: purchased R&D
T1 sequence (P08138 29-250 limits assumed): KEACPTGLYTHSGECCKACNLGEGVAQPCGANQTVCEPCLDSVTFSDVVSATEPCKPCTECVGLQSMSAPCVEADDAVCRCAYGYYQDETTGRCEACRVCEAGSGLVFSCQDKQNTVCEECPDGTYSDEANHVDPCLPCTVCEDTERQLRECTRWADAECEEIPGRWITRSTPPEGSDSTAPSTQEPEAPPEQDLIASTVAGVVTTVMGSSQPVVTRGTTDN
Method: (§1) The effect of compounds I-B and LM-24 on the binding between NGF and p75 was tested in competitive ELISA assays, where the antagonists prevent soluble p75 from binding to immobilized NGF. The selectivity of antagonism was evaluated by lack of effect upon NGF-TrkA or lack of effect between NGF and anti-NGF monoclonal antibody (mAb) NGF30 interactions (FIG. 1A).
The compound LM-24 has been reported by others (Massa et al., 2006). Binding studies were carried out with all the compounds using I-B as reference.
(§2) Competitive ELISAs were performed as described (Saragovi et al., 1998). The procedure immobilized 50 ng/well NGF, or pro-NGF (Alomone Labs, Israel) onto polystyrene 96-well microtest plates, with washing and blocking with binding buffer (BB; phosphate buffered saline containing 0.5% bovine serum albumin). The following primary reagents in BB were added: recombinant chimeric p75-Fc or recombinant chimeric TrkA-Fc (R&D), or anti-NGF mAb NGF30 (Saragovi et al., 1998); each at 50 nM. The competitors I-B and the other test compounds (or control LM-24) were added at the indicated concentrations, and the plates were incubated for 45 minutes. After washing 3× in BB, HRP-conjugated secondary reagents (Sigma) were added for 30 min (goat anti-human Fc for p75-Fc and for TrkA-Fc; and goat anti-rat Ab for NGF30 mAb), and then wells were washed 3× in BB and 1× in PBS. Peroxidase activity was determined colorimetrically using the substrate TMB One Solution (Promega). The reaction was stopped with 0.5 N H2SO4 and the plates were read at 450 nm (Benchmark Plus, Bio-Rad). Assays were repeated n>4 times, with replicates of 4 wells each assay. […] Wells with no NGF immobilized but with all other reagents added were treated as background (<15% of maximal signals) and standardized to 0% binding.

anti-NGF mAb NGF30 = test: Competitive ELISA, anti-NGF mAb NGF30 binding to immobilized NGF (selectivity control)
Method: as §1, §2

[1] = competitive ELISA, FIG. 1A, compound at 30 μM

CC(C)NC(=O)N(C(=O)Cn1cnc2c1c(=O)n(C)c(=O)n2C)C(C)C [I-B, 1,3-Diisopropyl-1-[2-(1,3-dimethyl-2,6-dioxo-1,2,3,6-tetrahydro-purin-7-yl)-acetyl]-urea]
cell viability (MTT) in presence of pro-NGF or pro-BDNF (B104 cells): prevented the loss of cell viability | remaining activity at 30 µM (p75-Fc; 0.75 h, binding to immobilized NGF, no cpd = 100%, p75-Fc 50 nM, as described for FIG. 1A (compounds 30 μM), below 100% indicates inhibition): 52% | effect on NGF-p75NTR interaction (p75-Fc; [1]): antagonized NGF-p75NTR interactions selectively | NGF30 binding AVERAGE (anti-NGF mAb NGF30; binding to immobilized NGF, no cpd = 100%, mAb NGF30 50 nM, as described for FIG. 1A): 88% | effect on mAb NGF30 binding to NGF (anti-NGF mAb NGF30; [1]): did not interfere
